We go through three molecules from patent publication US20120294869A1, “Methods for Treating Fatty Liver Disease” (Nevada Cancer Institute, priority 2011, published 2012).

Each structure is given as a SMILES string. Like-named read-outs stand apart in the source and are kept apart here.

One data set has as its system UPP-2. Particulars: mouse liver tissue; cited from earlier work.
Data set [1] is described as follows: Fate of an i.p. tracer dose of [3H]Urd in mouse plasma. The conditions noted are these: for half-life: plasma, ip. It is filed as in vivo. The text has this: The UPP-1-KO mouse was created by replacing a 2.5 kb fragment of the UPP-1 gene (including exons 4 and 5) with a 1.6 kb neomycin resistance expression cassette. See, e.g., Cao, D. et al. (2002) Cancer Res. 62: 2313-2317 and Cao, D. et al. (2005) J. Biol. Chem. 280: 21169-21175. […] The absence of UPP-1 phosphorolytic (UPase) activity was confirmed by determining the fate of a tracer dose (25 μCi/mouse) of [^3H]Urd injected intraperitoneally (i.p.) in mice. A very rapid disappearance of [^3H]Urd from the plasma of wild-type (WT) mice was observed, with a t1/2, of approximately […] due to active phosphorolysis.
Enzymatic activity in liver was 10.7±0.3 nmol/hr/mg for the WT animals compared to 252±68 nmol/hr/mg for the transgenic. In WT mice, a tracer dose of [^3H]Urd (25 μCi, i.p.) was rapidly degraded with a t1/2, of approximately 4 minutes. […] Table 1 summarizes the concentrations of URD in WT C57BL/6 mice, the UPP-1-KO and the UPP-1-TG models.

Data set [2] relates to Primary hepatocytes from UPP-1-TG mice. The experiment in a line: Intracellular lipid droplet accumulation in primary hepatocytes (CARS). It is filed as cell-based, mouse. The conditions noted are these: UPP-1-TG primary hepatocytes, 24 hour incubation, 100 μM Urd. From the text: (B) is a bar graph representing quantitative analysis of intracellular lipid level in 15 isolated hepatocytes from each group. Intracellular lipid level is defined as the square root of the CARS signal arising from the intracellular lipid droplets of each hepatocyte. Intracellular lipid level is normalized to 1 for WT hepatocytes.
To further confirm our results and to provide a more practical in vitro method, short term cultures of primary liver hepatocytes were generated. WT and UPP-1-TG mouse hepatocytes were isolated using a two-step collagenase perfusion technique initially described by Seglen (Seglen, P.O. (1976) Methods Cell Biol. 13: 29-83). Viability ranged from 80-90% as determined by trypan blue exclusion. Hepatocyte enrichment reached approximately 85-90%. Cells were monitored for albumin expression through 72 hours, with no discernible differences when compared to the initial isolation.

For data set [3], the system named is UPP-1-TG mice. The experiment in a line: CARS imaging of liver lipid accumulation after dietary Urd supplementation. Type of data set: in vivo, mouse. The conditions noted are these: Urd 2 to 5% in dry diet. The text has this:
Images are presented as 3-D stacks. (B) is a bar graph representing quantitative analysis of liver lipid in 18 probed volumes with xyz dimensions of 125×125×25 μm. Three mice per group were used for analysis. Lipid level is defined as the square root of the CARS signal arising from the lipid droplets. Lipid level is normalized to 1 for WT mice. Error bars represent the standard deviations. (C) is a graph depicting Raman spectroscopy analysis of lipid droplet composition.
Using CARS microscopy to image 100-micron thick sections of explanted liver tissues, the effect of the disruption of URD homeostasis on liver lipids was evaluated. As reprinted in FIG. 1, a dramatic difference in liver lipid accumulation among WT, UPP-1-KO and UPP-1-TG mice was observed. […] To confirm the results obtained through CARS microscopy, Oil Red O staining (specific for neutral triglycerides and lipids) of the frozen liver sections was conducted, which yielded similar results to the CARS technology (data not shown).

In data set [4] the test system is UPP-1-TG mice. The experiment in a line: Raman spectroscopy of lipid-chain unsaturation in liver lipid droplets. It is filed as in vivo, mouse. The conditions noted are these: UPP-1-TG mice fed with Urd. The text has this:
Red and blue arrows point to 1445 cm^−1 and 1660 cm^−1 peaks, respectively. (B) is a graph showing that 11660/11445 is linearly dependent on lipid-chain unsaturation. (C) is a bar graph depicting lipid-chain unsaturation of liver lipid droplets as a function of WT and UPP-1-TG mice. Error bars represent standard deviation across 18 lipid droplets measured.
In control UPP-1-TG mice, the value of 11660/11445, which is a reliable measure of lipid-chain unsaturation (FIG. 4A-B; Rinia, H. A., et al (2008) Biophysical Journal 95: 4908-4914, 2008), was 1.05 (FIG. 4C). In UPP-1-TG mice fed with Urd, the 11660/11445 value of liver lipid droplets was 0.3. The 11660/11445 value of liver lipid droplets was 0.8 for control WT mice.

`O=S(=O)(c1ccccc1)N(CC(F)(F)F)c1ccc(C(O)(C(F)(F)F)C(F)(F)F)cc1` [T0901317]: the “effect on UPP-2 expression in mouse liver” value in the data set with UPP-2 is given as “potent induction”.

Regarding `O=c1ccn([C@@H]2O[C@H](CO)[C@@H](O)[C@H]2O)c(=O)[nH]1` [[^3H]Urd], the half-life in data set [1] (C57BL/6, mouse, 25 μCi/mouse, wild-type (WT) mice, tracer dose 25 μCi/mouse i.p., read-out: [3H]Urd plasma t1/2) was approximately 4 min; in data set [1] (UPP-1-TG (ubiquitous UPP-1 transgenic), mouse, 25 μCi, UPP-1-TG mice, tracer dose 25 μCi i.p., read-out: [3H]Urd t1/2) it was less than 0.5 min; in data set [1] (mouse, 25 μCi/mouse, UPP-1-KO mice, tracer dose 25 μCi/mouse i.p., read-out: [3H]Urd plasma t1/2), 15 to 18 min. For the same molecule, the “[3H]Urd detectability after administration” value in data set [1] (UPP-1-TG (ubiquitous UPP-1 transgenic), mouse, in vivo, 15 minutes) was “no [^3H]Urd detectable”.

Take `O=c1ccn([C@@H]2O[C@H](CO)[C@@H](O)[C@H]2O)c(=O)[nH]1` [Urd, uridine]: the “reduction in intracellular lipid droplet accumulation” value in data set [2] was 10 fold. For the same molecule, the “reduction of liver lipid accumulation” value in the data set with UPP-1-TG mice [3] is approximately 15 fold. Moreover, the “11660/11445 value of liver lipid droplets (lipid-chain unsaturation)” value with UPP-1-TG mice [4] came to 0.3.
